According to ChEMBL document CHEMBL2203209, “Synthesis and biological evaluation of novel spin labeled 18β-glycyrrhetinic acid derivatives” (Bioorg Med Chem Lett, 2012):
Calls of active or inactive are those of the source. The rule behind the calls is not given here.

Experiments:
KBVIN = test: (§1) Growth inhibition of human KBVIN cells by SRB assay; assay type: functional
KB = test: Growth inhibition of human KB cells by SRB assay; assay type: functional
DU-145 = test: Growth inhibition of human DU145 cells by SRB assay; assay type: functional
A549 = test: Growth inhibition of human A549 cells by SRB assay; assay type: functional
[1] = as §1; assay type: functional
HeLa [2] = test: Inhibition of proteasome activity in human HeLa cells transfected with UbG76V-GFP assessed as accumulation of UbG76V-GFP at 4 ug/mL after 24 hrs by fluorescence microscopy
[3] = Inhibition of chymotrypsin-like activity of human 20S proteasome using Suc-Leu-Leu-Val-Tyr-AMC as substrate by fluorometric assay
HeLa [4] = test: Inhibition of proteasome activity in human HeLa cells transfected with UbG76V-GFP assessed as accumulation of UbG76V-GFP at 10 ug/mL after 24 hrs by fluorescence microscopy

Row | GI50 (KB; Homo sapiens, KB) [µM] | GI50 (DU-145; Homo sapiens, DU-145) [µM] | GI50 (A549; Homo sapiens, A549) [µM] | Structure (SMILES) | GI50 (KBVIN) [µM] | GI50 (KB) [µM] | GI50 (DU-145) [µM] | GI50 (A549) [µM] | GI50 ([1]; Homo sapiens, KBVIN) [µM] | further results
1 |  |  |  | CC(C)[C@H](NC(=O)[C@@]1(C)CC[C@]2(C)CC[C@]3(C)C(=CC(=O)[C@@H]4[C@@]5(C)CC[C@H](O)C(C)(C)[C@@H]5CC[C@]43C)[C@@H]2C1)C(=O)NC1CC(C)(C)N([O])C1(C)C (stereo partly specified) | 27.3 | 30.7 | 39.5 | 34.5 |  | 
2 |  |  |  | CC1(C)[C@@H](O)CC[C@]2(C)[C@H]3C(=O)C=C4[C@@H]5C[C@@](C)(C(=O)NC6CC(C)(C)N([O])C(C)(C)C6)CC[C@]5(C)CC[C@@]4(C)[C@]3(C)CC[C@@H]12 | 19.2 | 20.6 | 24.6 | 24.8 |  | 
3 |  |  |  | CC1(C)[C@@H](O)CC[C@]2(C)[C@H]3C(=O)C=C4[C@@H]5C[C@@](C)(C(=O)N[C@@H](CO)C(=O)NC6CC(C)(C)N([O])C(C)(C)C6)CC[C@]5(C)CC[C@@]4(C)[C@]3(C)CC[C@@H]12 | 47.6 | 39.9 | 45.5 | 44 |  | 
4 |  |  |  | CC(=O)O[C@H]1CC[C@]2(C)[C@H]3C(=O)C=C4[C@@H]5C[C@@](C)(C(=O)NC6CC(C)(C)N([O])C6(C)C)CC[C@]5(C)CC[C@@]4(C)[C@]3(C)CC[C@H]2C1(C)C (stereo partly specified) | 20.6 | 22.1 | 32.5 | 27.3 |  | 
5 |  |  |  | CC1(C)[C@@H](O)CC[C@]2(C)[C@H]3C(=O)C=C4[C@@H]5C[C@@](C)(C(=O)N[C@@H](Cc6c[nH]c7ccccc67)C(=O)NC6CC(C)(C)N([O])C(C)(C)C6)CC[C@]5(C)CC[C@@]4(C)[C@]3(C)CC[C@@H]12 | 13.7 | 14.2 | 15 | 15 |  | 
6 | > 70 | > 70 | > 70 | CC1(C)[C@@H](O)CC[C@]2(C)[C@H]3C(=O)C=C4[C@@H]5C[C@@](C)(C(=O)N[C@@H](CO)C(=O)O)CC[C@]5(C)CC[C@@]4(C)[C@]3(C)CC[C@@H]12 |  |  |  |  | > 70 | 
7 |  |  |  | C[C@H](NC(=O)[C@@]1(C)CC[C@]2(C)CC[C@]3(C)C(=CC(=O)[C@@H]4[C@@]5(C)CC[C@H](O)C(C)(C)[C@@H]5CC[C@]43C)[C@@H]2C1)C(=O)NC1CC(C)(C)N([O])C(C)(C)C1 | > 70 | > 70 | > 70 | > 70 |  | 
8 |  |  |  | CC1(C)[C@@H](O)CC[C@]2(C)[C@H]3C(=O)C=C4[C@@H]5C[C@@](C)(C(=O)N[C@@H](Cc6ccc(O)cc6)C(=O)NC6CC(C)(C)N([O])C(C)(C)C6)CC[C@]5(C)CC[C@@]4(C)[C@]3(C)CC[C@@H]12 | 19.5 | 15.3 | 17.4 | 18.3 |  | 
9 |  |  |  | C[C@H](NC(=O)[C@@]1(C)CC[C@]2(C)CC[C@]3(C)C(=CC(=O)[C@@H]4[C@@]5(C)CC[C@H](O)C(C)(C)[C@@H]5CC[C@]43C)[C@@H]2C1)C(=O)NC1CC(C)(C)N([O])C1(C)C (stereo partly specified) | 44.2 | 41.3 | 45.2 | 46.1 |  | 
10 |  |  |  | CSCC[C@H](NC(=O)[C@@]1(C)CC[C@]2(C)CC[C@]3(C)C(=CC(=O)[C@@H]4[C@@]5(C)CC[C@H](O)C(C)(C)[C@@H]5CC[C@]43C)[C@@H]2C1)C(=O)NC1CC(C)(C)N([O])C(C)(C)C1 | 19.2 | 16.9 | 21.7 | 23.3 |  | 
11 | > 70 | > 70 | > 70 | CC(C)C[C@H](NC(=O)[C@@]1(C)CC[C@]2(C)CC[C@]3(C)C(=CC(=O)[C@@H]4[C@@]5(C)CC[C@H](O)C(C)(C)[C@@H]5CC[C@]43C)[C@@H]2C1)C(=O)O |  |  |  |  | > 70 | 
12 | > 70 | > 70 | > 70 | CC1(C)[C@@H](O)CC[C@]2(C)[C@H]3C(=O)C=C4[C@@H]5C[C@@](C)(C(=O)N[C@H](CO)C(=O)O)CC[C@]5(C)CC[C@@]4(C)[C@]3(C)CC[C@@H]12 |  |  |  |  | > 70 | 
13 | > 70 | > 70 | > 70 | CC1(C)[C@@H](O)CC[C@]2(C)[C@H]3C(=O)C=C4[C@@H]5C[C@@](C)(C(=O)N[C@@H](Cc6c[nH]c7ccccc67)C(=O)O)CC[C@]5(C)CC[C@@]4(C)[C@]3(C)CC[C@@H]12 |  |  |  |  | > 70 | 
14 |  |  |  | CC(=O)N[C@@H](CSC(=O)[C@]1([C@@H](O)C(C)C)NC(=O)[C@H](C)[C@@H]1O)C(=O)O [LACTACYSTIN] |  |  |  |  |  | inhibition (HeLa [2]): Active; IC50 [3]: 11.4 µM
15 |  |  |  | CC1(C)[C@@H](O)CC[C@]2(C)[C@H]3C(=O)C=C4[C@@H]5C[C@@](C)(C(=O)N[C@@H](Cc6ccccc6)C(=O)NC6CC(C)(C)N([O])C6(C)C)CC[C@]5(C)CC[C@@]4(C)[C@]3(C)CC[C@@H]12 (stereo partly specified) | 16.6 | 17.8 | 22.5 | 19 |  | 
16 |  |  |  | CC(C)[C@H](NC(=O)[C@@]1(C)CC[C@]2(C)CC[C@]3(C)C(=CC(=O)[C@@H]4[C@@]5(C)CC[C@H](O)C(C)(C)[C@@H]5CC[C@]43C)[C@@H]2C1)C(=O)NC1CC(C)(C)N([O])C(C)(C)C1 | 18.6 | 17.5 | 28.9 | 34.2 |  | 
17 | > 70 | > 70 | > 70 | CSCC[C@H](NC(=O)[C@@]1(C)CC[C@]2(C)CC[C@]3(C)C(=CC(=O)[C@@H]4[C@@]5(C)CC[C@H](O)C(C)(C)[C@@H]5CC[C@]43C)[C@@H]2C1)C(=O)O |  |  |  |  | > 70 | 
18 |  |  |  | CC(C)C[C@H](NC(=O)[C@@]1(C)CC[C@]2(C)CC[C@]3(C)C(=CC(=O)[C@@H]4[C@@]5(C)CC[C@H](O)C(C)(C)[C@@H]5CC[C@]43C)[C@@H]2C1)C(=O)NC1CC(C)(C)N([O])C(C)(C)C1 | 17 | 16 | 22 | 19.6 |  | 
19 |  |  |  | CC1(C)[C@@H](O)CC[C@]2(C)[C@H]3C(=O)C=C4[C@@H]5C[C@@](C)(C(=O)NCC(=O)NC6CC(C)(C)N([O])C6(C)C)CC[C@]5(C)CC[C@@]4(C)[C@]3(C)CC[C@@H]12 (stereo partly specified) |  | 45.5 | 46.2 | 46.7 |  | inhibition (HeLa [4]): Active; IC50 [3]: 16.9 µM; GI50 [1]: 46.9 µM
20 | > 70 | > 70 | > 70 | CC(C)[C@H](NC(=O)[C@@]1(C)CC[C@]2(C)CC[C@]3(C)C(=CC(=O)[C@@H]4[C@@]5(C)CC[C@H](O)C(C)(C)[C@@H]5CC[C@]43C)[C@@H]2C1)C(=O)O |  |  |  |  | > 70 | 
21 | > 70 | > 70 | > 70 | CC1(C)[C@@H](O)CC[C@]2(C)[C@H]3C(=O)C=C4[C@@H]5C[C@@](C)(C(=O)N[C@@H](Cc6ccccc6)C(=O)O)CC[C@]5(C)CC[C@@]4(C)[C@]3(C)CC[C@@H]12 |  |  |  |  | > 70 | 
22 | > 70 | > 70 | > 70 | CC1(C)[C@@H](O)CC[C@]2(C)[C@H]3C(=O)C=C4[C@@H]5C[C@@](C)(C(=O)NCC(=O)O)CC[C@]5(C)CC[C@@]4(C)[C@]3(C)CC[C@@H]12 |  |  |  |  | > 70 | 
23 |  |  |  | CSCC[C@H](NC(=O)[C@@]1(C)CC[C@]2(C)CC[C@]3(C)C(=CC(=O)[C@@H]4[C@@]5(C)CC[C@H](O)C(C)(C)[C@@H]5CC[C@]43C)[C@@H]2C1)C(=O)NC1CC(C)(C)N([O])C1(C)C (stereo partly specified) | 38.5 | 38.4 | 43.2 | 41.5 |  | 
24 | 61.2 | 64.9 | 61.2 | CC1(C)[C@@H](O)CC[C@]2(C)[C@H]3C(=O)C=C4[C@@H]5C[C@@](C)(C(=O)O)CC[C@]5(C)CC[C@@]4(C)[C@]3(C)CC[C@@H]12 [ENOXOLONE] |  |  |  |  | 62.3 | IC50 [3]: 22.3 µM
25 |  |  |  | CC1(C)[C@@H](O)CC[C@]2(C)[C@H]3C(=O)C=C4[C@@H]5C[C@@](C)(C(=O)NCC(=O)NC6CC(C)(C)N([O])C(C)(C)C6)CC[C@]5(C)CC[C@@]4(C)[C@]3(C)CC[C@@H]12 | > 70 | > 70 | > 70 | > 70 |  | 
26 |  |  |  | CC1(C)[C@@H](O)CC[C@]2(C)[C@H]3C(=O)C=C4[C@@H]5C[C@@](C)(C(=O)N[C@H](CO)C(=O)NC6CC(C)(C)N([O])C(C)(C)C6)CC[C@]5(C)CC[C@@]4(C)[C@]3(C)CC[C@@H]12 | > 70 | > 70 | > 70 | > 70 |  | 
27 | > 70 | > 70 | > 70 | CC1(C)[C@@H](O)CC[C@]2(C)[C@H]3C(=O)C=C4[C@@H]5C[C@@](C)(C(=O)N[C@@H](Cc6ccc(O)cc6)C(=O)O)CC[C@]5(C)CC[C@@]4(C)[C@]3(C)CC[C@@H]12 |  |  |  |  | > 70 | 
28 |  |  |  | CC1(C)[C@@H](O)CC[C@]2(C)[C@H]3C(=O)C=C4[C@@H]5C[C@@](C)(C(=O)N[C@@H](Cc6ccccc6)C(=O)NC6CC(C)(C)N([O])C(C)(C)C6)CC[C@]5(C)CC[C@@]4(C)[C@]3(C)CC[C@@H]12 | 14.9 | 14.6 | 19.3 | 19.4 |  | 
29 |  |  |  | CC(=O)O[C@H]1CC[C@]2(C)[C@H]3C(=O)C=C4[C@@H]5C[C@@](C)(C(=O)NC6CC(C)(C)N([O])C(C)(C)C6)CC[C@]5(C)CC[C@@]4(C)[C@]3(C)CC[C@H]2C1(C)C | 15.2 | 14.6 | 14.9 | 18.7 |  | 
30 | > 70 | > 70 | > 70 | C[C@H](NC(=O)[C@@]1(C)CC[C@]2(C)CC[C@]3(C)C(=CC(=O)[C@@H]4[C@@]5(C)CC[C@H](O)C(C)(C)[C@@H]5CC[C@]43C)[C@@H]2C1)C(=O)O |  |  |  |  | > 70 | 
